Data published in US20190069549A1, “HERBICIDAL COMPOSITIONS CONTAINING PYRIDINE CARBOXYLIC ACIDS OR DERIVATIVES THEREOF, WITH GLYPHOSATE OR GLUFOSINATE, OR DERIVATIVES THEREOF” (Dow AgroSciences LLC, priority 2017, published 2019).

Tests used:
Assay in all cases: Postemergence herbicidal activity, greenhouse trial (visual injury)
Assay type in all cases: in vivo
[1] = test system: Abutilon theophrasti (velvetleaf), ABUTH; details: 20-22 d
Experimental: (§1) Seeds of the desired test plant species were planted in Sun Gro MetroMix® 360 planting mixture, which typically has a pH of 6.0 to 6.8 and an organic matter content of about 30 percent, in plastic pots with a surface area of 103.2 square centimeters (cm^2). When required to ensure good germination and healthy plants, a fungicide treatment and/or other chemical or physical treatment was applied. The plants were grown for 7-36 days (d) in a greenhouse with an approximate 14-hour (h) photoperiod which was maintained at about 23° C. during the day and 22° C. during the night. Nutrients and water were added on a regular basis and supplemental lighting was provided with overhead metal halide 1000-Watt lamps as necessary. The plants were employed for testing when they reached the second or third true leaf stage.
(§2) Weighed amounts of technical material were dissolved in a volume of 97:3 volume per volume (v/v) acetone/dimethyl sulfoxide (DMSO) to make stock solutions. […] The concentrated stock solutions were diluted with an aqueous mixture of 1.5% v/v of Agri-dex crop oil concentrate to provide the appropriate application rates. Compound requirements are based upon a 12 milliliter (mL) application volume at a rate of 187 liters per hectare (L/ha). Spray solutions of the experimental compound mixtures were prepared by adding the stock solutions to the appropriate amount of dilution solution to form a 12 mL spray solution in two-way combinations. Formulated compounds were applied to the plant material with an overhead Mandel track sprayer equipped with 8002E nozzles calibrated to deliver 187 L/ha over an application area of 0.503 square meters (m^2) at a spray height of 18 inches (43 centimeters (cm)) above average plant canopy. Control plants were sprayed in the same manner with the solvent blank. Application rates for component (a) are in g ae/ha, and application rates for component (b) are in g ai/ha.
(§3) The treated plants and control plants were placed in a greenhouse as described above and watered by sub-irrigation to prevent wash-off of the test compounds. After 20-22 d, the condition of the test plants as compared with that of the control plants was determined visually and scored on a scale of 0 to 100 percent where 0 corresponds to no injury and 100 corresponds to complete kill. The condition of the test plants was compared with that of the control plants as determined visually and scored on a scale of 0 to 100 percent, where 0 corresponds to no injury and 100 corresponds to complete kill. Colby' s equation was used to determine the herbicidal effects expected from the mixtures.
(§4) Compound 1 was formulated as an EC and was combined with glyphosate or glufosinate and applied to weeds, and the phytotoxicity of the herbicidal composition was measured.

[2] = test system: Brassica napus (winter rape), BRSNW; details: 20-22 d
Experimental: as §1, §2, §3, §4

[3] = test system: Brassica rapa (turnip), BRSRR; details: 20-22 d
Experimental: as §1, §2, §3, §4

[4] = test system: Zea mays (maize/corn), ZEAMX; details: 20-22 d
Experimental: as §1, §2, §3, §4

[5] = test system: Helianthus annuus (sunflower), HELAN; details: 20-22 d
Experimental: as §1, §2, §3, §4

[6] = test system: Triticum aestivum (winter wheat), TRZAW; details: 20-22 d
Experimental: as §1, §2, §3, §4

[7] = test system: Brassica napus (spring rape; Roundup Ready), BRSNN-RR; details: 5 g ae/ha alone, 20-22 d, Table 2
Experimental: as §1, §2, §3, §4

[8] = test system: Brassica juncea (brown mustard), BRSJU; details: 5 g ae/ha alone, 20-22 d, Table 2
Experimental: as §1, §2, §3, §4

[9] = test system: Brassica alboglabra (chinese kale), BRSAG; details: 5 g ae/ha alone, 20-22 d, Table 2
Experimental: as §1, §2, §3, §4

[10] = test system: Digitaria sanguinalis (large crabgrass), DIGSA; details: 20-22 d
Experimental: as §1, §2, §3, §4

[11] = test system: Cirsium arvense (thistle), CIRAR; details: 20-22 d
Experimental: as §1, §2, §3, §4

[12] = test system: Viola tricolor (wild pansy), VIOTR; details: 20-22 d
Experimental: as §1, §2, §3, §4

[13] = test system: Polygonum convolvulus (wild buckwheat), POLCO; details: 20-22 d
Experimental: as §1, §2, §3, §4

With Nc1c(F)c(-c2ccc3cc[nH]c3c2F)nc(C(=O)O)c1Cl [Compound 1] the “% Visual Injury” value ([1]; 5 g ae/ha alone, Table 1) was 60%, the “% Visual Injury” value ([1]; 5 g ae/ha alone, Table 2) was 60% and the “% Visual Injury” value ([2]; BRSNW* (retest), 5 g ae/ha alone, Table 1) was 50%. The “% Visual Injury” value ([2]; BRSNW* (retest), 5 g ae/ha alone, Table 2) was 30%, the “% Visual Injury” value ([2]; BRSNW, 5 g ae/ha alone, Table 1) was 30% and the “% Visual Injury” value ([2]; BRSNW, 5 g ae/ha alone, Table 2) was 50%. The “% Visual Injury” value ([3]; 5 g ae/ha alone, Table 1) was 50%, the “% Visual Injury” value ([3]; 5 g ae/ha alone, Table 2) was 50% and the “% Visual Injury” value ([4]; 5 g ae/ha alone, Table 1) was 0%. For the same compound, the “% Visual Injury” value ([4]; 5 g ae/ha alone, Table 2) was 0%, the “% Visual Injury” value ([5]; 5 g ae/ha alone, Table 1) was 70% and the “% Visual Injury” value ([5]; 5 g ae/ha alone, Table 2) was 70%. For the same compound, the “% Visual Injury” value ([6]; 5 g ae/ha alone, Table 1) was 5%, the “% Visual Injury” value ([6]; 5 g ae/ha alone, Table 2) was 5% and the “% Visual Injury” value [7] was 35%. The “% Visual Injury” value [8] was 60%, the “% Visual Injury” value [9] was 15% and the “% Visual Injury” value ([10]; 5 g ae/ha alone, Table 1) was 5%. For the same compound, the “% Visual Injury” value ([10]; 5 g ae/ha alone, Table 2) was 5%, the “% Visual Injury” value ([11]; 5 g ae/ha alone, Table 1) was 10% and the “% Visual Injury” value ([11]; 5 g ae/ha alone, Table 2) was 10%. For the same compound, the “% Visual Injury” value ([12]; 5 g ae/ha alone, Table 1) was 5%, the “% Visual Injury” value ([12]; 5 g ae/ha alone, Table 2) was 5% and the “% Visual Injury” value ([13]; 5 g ae/ha alone, Table 1) was 65%. The “% Visual Injury” value ([13]; 5 g ae/ha alone, Table 2) was 65%.
With O=C(O)CNCP(=O)(O)O [Glyphosate, N-(phosphonomethyl)glycine] the “% Visual Injury” value ([1]; 210 g ai/ha alone, Table 1) was 60%, the “% Visual Injury” value ([2]; BRSNW* (retest), 210 g ai/ha alone, Table 1) was 30% and the “% Visual Injury” value ([2]; BRSNW, 210 g ai/ha alone, Table 1) was 20%. The “% Visual Injury” value ([3]; 210 g ai/ha alone, Table 1) was 65%, the “% Visual Injury” value ([4]; 210 g ai/ha alone, Table 1) was 0% and the “% Visual Injury” value ([5]; 210 g ai/ha alone, Table 1) was 65%. The “% Visual Injury” value ([6]; 210 g ai/ha alone, Table 1) was 75%, the “% Visual Injury” value ([10]; 210 g ai/ha alone, Table 1) was 70% and the “% Visual Injury” value ([11]; 210 g ai/ha alone, Table 1) was 25%. For the same compound, the “% Visual Injury” value ([12]; 210 g ai/ha alone, Table 1) was 50% and the “% Visual Injury” value ([13]; 210 g ai/ha alone, Table 1) was 45%.
